Test results as given in US7973033B2, “Multi-cyclic cinnamide derivatives” (Eisai R&D Management Co., Ltd., priority 2006, dated 2011).

system: Aβ 42 production; test: Quantification of Aβ Peptide in Culture of Neurons from Rat Fetus Brain; format: cell-based; conditions: Neuron, 72 h; rat primary neuronal culture (cerebral cortex, embryonic day 18 Wistar rats); medium collected three days after addition of the compound; Aβ ELISA; read-out: Effect of reducing Aβ 42 production IC50
Method: Quantification of Aβ Peptide in Culture of Neurons from Rat Fetus Brain
(1) Rat Primary Neuronal Culture
Primary neuronal cultures were prepared from the cerebral cortex of embryonic day 18 Wistar rats (Charles River Japan, Yokohama, Japan). Specifically, the embryos were aseptically removed from pregnant rats under ether anesthesia. The brain was isolated from the embryo and immersed in an ice-cold L-15 medium (Invitrogen Corp. Cat #11415-064, Carlsbad, Calif., USA, or SIGMA L1518, for example). The cerebral cortex was collected from the isolated brain under a stereoscopic microscope. The cerebral cortex fragments collected were enzymatically treated in an enzyme solution containing 0.25% trypsin (Invitrogen Corp. Cat #15050-065, Carlsbad, Calif., USA) and 0.01% DNase (Sigma D5025, St. Louis, Mo., USA) at 37° C. for 30 minutes to disperse the cells. Here, the enzymatic reaction was stopped by adding inactivated horse serum to the solution. The enzymatically treated solution was centrifuged at 1,500 rpm for five minutes to remove the supernatant. 5 to 10 ml of a medium was added to the resulting cell mass. Neurobasal medium (Invitrogen Corp. Cat #21103-049, Carlsbad, Calif., USA) supplemented with 2% B27 supplement (Invitrogen Corp. Cat #17504-044, Carlsbad, Calif., USA), 25 μM 2-mercaptoethanol (2-ME, WAKO Cat #139-06861, Osaka, Japan), 0.5 mM L-glutamine (Invitrogen Corp. Cat #25030-081, Carlsbad, Calif., USA), and Antibiotics-Antimycotics (Invitrogen Corp. Cat #15240-062, Carlsbad, Calif., USA) was used as the medium (Neurobasal/B27/2-ME). However, the above Neurobasal medium not supplemented with 2-ME (Neurobasal/B27) was used for the assay. The cells were redispersed by mild pipetting of the cell mass to which the medium was added. The cell dispersion was filtered through a 40-μm nylon mesh (Cell Strainer, Cat #35-2340, Becton Dickinson Labware, Franklin Lakes, N.J., USA) to remove the remaining cell mass, and thus a neuronal cell suspension was obtained. The neuronal cell suspension was diluted with the medium and then plated in a volume of 100 μl/well at an initial cell density of 5×10^5 cells/cm^2 in a 96-well polystyrene culture plate pre-coated with poly-L or D-lysine (Falcon Cat #35-3075, Becton Dickinson Labware, Franklin Lakes, N.J., USA coated with poly-L-lysine using the method shown below, or BIOCOAT™ cell environments Poly-D-lysine cell ware 96-well plate, Cat #35-6461, Becton Dickinson Labware, Franklin Lakes, N.J., USA). Poly-L-lysine coating was carried out as follows. 100 μg/ml of a poly-L-lysine (SIGMA P2636, St. Louis, Mo., USA) solution was aseptically prepared with a 0.15 M borate buffer (pH 8.5). 100 μl/well of the solution was added to the 96-well polystyrene culture plate and incubated at room temperature for one or more hours or at 4° C. overnight or longer. The coated 96-well polystyrene culture plate was washed with sterile water four or more times, and then dried or rinsed with, for example, sterile PBS or medium, and used for cell plating. The plated cells were cultured in the culture plate at 37° C. in 5% CO2-95% air for one day. Then, the total amount of the medium was replaced with a fresh Neurobasal™/B27/2-ME medium, and then the cells were cultured for further three days.
The drug was added to the culture plate on Day 4 of culture as follows. The total amount of the medium was removed from the wells, and 180 μl/well of Neurobasal medium not containing 2-ME and containing 2% B-27 (Neurobasal/B27) was added thereto. A solution of the test compound in dimethyl sulfoxide (hereinafter abbreviated as DMSO) was diluted with Neurobasal/B27 at 10-fold of the final concentration. 20 μl/well of the dilution was added to and sufficiently mixed with the medium. The final DMSO concentration was 1% or less. Only DMSO was added to the control group.
The cells were cultured for three days after addition of the compound, and the total amount of the medium was collected. […]

Question: How did the IC50 turn out when `COc1cc(/C=C/c2nc3n(n2)CCC[C@@H]3c2ccc(OC(F)(F)F)cc2)ccc1-n1cnc(C)c1` [Example 129, (−)-2-{(E)-2-[3-methoxy-4-(4-methyl-1H-imidazol-1-yl)phenyl]vinyl}-8-(4-trifluoromethoxyphenyl)-5,6,7,8-tetrahydro[1,2,4]triazolo[1,5-a]pyridine] was run?
Answer: The IC50 was 17 nM.

Question: How did the IC50 turn out when `COc1cc(/C=C/c2nc3n(n2)CCCC3(O)c2ccc(Cl)cc2)ccc1-n1cnc(C)c1` (single isomer, unassigned) [Example 153, (−)-8-(4-chlorophenyl)-2-{(E)-2-[3-methoxy-4-(4-methyl-1H-imidazol-1-yl)phenyl]vinyl}-5,6,7,8-tetrahydro[1,2,4]triazolo[1,5-a]pyridin-8-ol] was run?
Answer: Its IC50 is 31 nM.

Question: How did the IC50 turn out when `COc1cc(/C=C/c2nc(-c3ccc(F)cc3)c(C(=O)NCCCl)[nH]2)ccc1-n1cnc(C)c1` [Example 9, 5-(4-fluorophenyl)-2-{(E)-2-[3-methoxy-4-(4-methyl-1H-imidazol-1-yl)phenyl]vinyl}-1H-imidazole-4-carboxylic acid (2-chloroethyl)amide] was run?
Answer: Its IC50 is 83 nM.

Question: Which IC50 does the source give for `COc1cc(/C=C/c2nc3n(n2)CCOC3c2ccc(OC(F)(F)F)cc2)ccc1-n1cnc(C)c1` (single isomer, unassigned) [Example 135, (−)-2-{(E)-2-[3-methoxy-4-(4-methyl-1H-imidazol-1-yl)phenyl]vinyl}-8-(4-trifluoromethoxyphenyl)-5,6-dihydro-8H-[1,2,4]triazolo[5,1-c][1,4]oxazine] here?
Answer: The IC50 was 43 nM.

Question: With `COc1cc(/C=C/c2nnc(CCc3ccc(F)cc3)[nH]2)ccc1-n1cnc(C)c1` [Example 32, 3-[2-(4-fluorophenyl)ethyl]-5-{(E)-2-[3-methoxy-4-(4-methyl-1H-imidazol-1-yl)phenyl]vinyl}-4H-[1,2,4]triazole] as the compound, how does the IC50 read?
Answer: Its IC50 is 62 nM.

Question: With `COc1ccc([C@@H]2CCCn3nc(/C=C/c4ccc(-n5cnc(C)c5)c(OC)c4)nc32)cc1` (single isomer, unassigned) [Example 75, (−)-2-{(E)-2-[3-methoxy-4-(4-methyl-1H-imidazol-1-yl)phenyl]vinyl}-8-(4-methoxyphenyl)-5,6,7,8-tetrahydro-[1,2,4]triazolo[1,5-a]pyridine] as the compound, how does the IC50 read?
Answer: The IC50 was 45 nM.

Question: How did the IC50 turn out when `COc1cc(/C=C/c2nc3n(n2)CCO[C@H]3c2cc(F)c(F)c(F)c2)ccc1-n1cnc(C)c1` (single isomer, unassigned) [Example 77, (−)-2-{(E)-2-[3-methoxy-4-(4-methyl-1H-imidazol-1-yl)phenyl]vinyl}-8-(3,4,5-trifluorophenyl)-5,6-dihydro-8H-[1,2,4]triazolo[5,1-c][1,4]oxazine] was run?
Answer: The IC50 was 83 nM.

Question: Which IC50 does the source give for `COc1cc(/C=C/c2nc(C(C)c3ccccc3)n(C)n2)ccc1-n1cnc(C)c1` (stereo not drawn) [Example 45, 3-{(E)-2-[3-methoxy-4-(4-methyl-1H-imidazol-1-yl)phenyl]vinyl}-1-methyl-5-(1-phenylethyl)-1H-[1,2,4]triazole] here?
Answer: Its IC50 is 85 nM.

Question: How did the IC50 turn out when `COc1cc(/C=C/c2nc3n(n2)CCCC3c2cc(F)c(F)c(F)c2)cnc1-n1cnc(C)c1` (single isomer, unassigned) [Example 60, (−)-2-{(E)-2-[5-methoxy-6-(4-methyl-1H-imidazol-1-yl)pyridin-3-yl]vinyl}-8-(3,4,5-trifluorophenyl)-5,6,7,8-tetrahydro[1,2,4]triazolo[1,5-a]pyridine] was run?
Answer: Its IC50 is 40 nM.

Question: For `COc1cc(/C=C2\CCCn3c2nc(CO)c3-c2ccc(F)cc2)ccc1-n1cnc(C)c1` [Example 23, {3-(4-fluorophenyl)-8-{1-[3-methoxy-4-(4-methyl-1H-imidazol-1-yl)phenyl]-(E)-methylidene}-5,6,7,8-tetrahydroimidazo[1,2-a]pyridin-2-yl}methanol], which IC50 is on record?
Answer: The IC50 was 60 nM.

Question: For `COc1cc(/C=C/c2nnc(C(C)c3ccc(F)cc3)[nH]2)ccc1-n1cnc(C)c1` (single isomer, unassigned) [Example 36, (+)-3-[1-(4-fluorophenyl)ethyl]-5-{(E)-2-[3-methoxy-4-(4-methyl-1H-imidazol-1-yl)phenyl]vinyl}-4H-[1,2,4]triazole], which IC50 is on record?
Answer: The IC50 was 34 nM.

Question: Which IC50 does the source give for `COc1cc(/C=C/c2nc3n(n2)CCCC3c2ccc(C)cc2)ccc1-n1cnc(C)c1` (single isomer, unassigned) [Example 151, (−)-2-{(E)-2-[3-methoxy-4-(4-methyl-1H-imidazol-1-yl)phenyl]vinyl}-8-p-tolyl-5,6,7,8-tetrahydro[1,2,4]triazolo[1,5-a]pyridine] here?
Answer: Its IC50 is 16 nM.

Question: With `COc1cc(/C=C(\F)c2nc3n(n2)CCC[C@@H]3c2cc(F)c(F)c(F)c2)ccc1-n1cnc(C)c1` (single isomer, unassigned) [Example 58, (−)-2-{(Z)-1-fluoro-2-[3-methoxy-4-(4-methyl-1H-imidazol-1-yl)phenyl]vinyl}-8-(3,4,5-trifluorophenyl)-5,6,7,8-tetrahydro[1,2,4]triazolo[1,5-a]pyridine] as the compound, how does the IC50 read?
Answer: The IC50 was 39 nM.

Question: For `COc1cc(/C=C/c2nc3n(n2)CCC[C@@H]3c2cc(F)c(F)c(F)c2)c(F)cc1-n1cnc(C)c1` (single isomer, unassigned) [Example 69, (−)-2-{(E)-2-[2-fluoro-5-methoxy-4-(4-methyl-1H-imidazol-1-yl)phenyl]vinyl}-8-(3,4,5-trifluorophenyl)-5,6,7,8-tetrahydro[1,2,4]triazolo[1,5-a]pyridine], which IC50 is on record?
Answer: Its IC50 is 74 nM.

Question: Which IC50 does the source give for `COc1cc(/C=C/c2nnc(C(C)c3ccc(F)cc3)[nH]2)ccc1-n1cnc(C)c1` (racemic) [Example 31, 3-[1-(4-fluorophenyl)ethyl]-5-{(E)-2-[3-methoxy-4-(4-methyl-1H-imidazol-1-yl)phenyl]vinyl}-4H-[1,2,4]triazole] here?
Answer: The IC50 was 33 nM.

Question: Which IC50 does the source give for `COc1cc(/C=C/c2nc(-c3ccc(F)cc3)c[nH]2)ccc1-n1cnc(C)c1` [Example 1, 4-(4-fluorophenyl)-2-{(E)-2-[3-methoxy-4-(4-methyl-1H-imidazol-1-yl)phenyl]vinyl}-1H-imidazole] here?
Answer: The IC50 was 45 nM.

Question: How did the IC50 turn out when `COc1cc(/C=C/c2nc(-c3ccccc3)cn2C)ccc1-n1cnc(C)c1` [Example 5, 2-{(E)-2-[3-methoxy-4-(4-methyl-1H-imidazol-1-yl)phenyl]vinyl}-1-methyl-4-phenyl-1H-imidazole] was run?
Answer: The IC50 was 18 nM.

Question: With `COc1cc(/C=C/c2nc3n(n2)CCC[C@@]3(O)c2cccc3ccccc23)ccc1-n1cnc(C)c1` (single isomer, unassigned) [Example 136, (−)-2-{(E)-2-[3-methoxy-4-(4-methyl-1H-imidazol-1-yl)phenyl]vinyl}-8-naphthalen-1-yl-5,6,7,8-tetrahydro[1,2,4]triazolo[1,5-a]pyridin-8-ol] as the compound, how does the IC50 read?
Answer: The IC50 was 24 nM.

Question: `COc1cc(/C=C/c2nc3n(n2)CCCC3c2cc(F)c(F)c(F)c2)ccc1-n1cnc(C)c1` (single isomer, unassigned) [Example 54, (−)-2-{(E)-2-[3-methoxy-4-(4-methyl-1H-imidazol-1-yl)phenyl]vinyl}-8-(3,4,5-trifluorophenyl)-5,6,7,8-tetrahydro[1,2,4]triazolo[1,5-a]pyridine] was tested. Which IC50 did it give?
Answer: The IC50 was 14 nM.

Question: For `COc1cc(/C=C/c2nc3n(n2)CCCC3c2ccc(F)cc2)ccc1-n1cnc(C)c1` (single isomer, unassigned) [Example 52, (−)-8-(4-fluorophenyl)-2-{(E)-2-[3-methoxy-4-(4-methyl-1H-imidazol-1-yl)phenyl]vinyl}-5,6,7,8-tetrahydro[1,2,4]triazolo[1,5-a]pyridine], which IC50 is on record?
Answer: The IC50 was 14 nM.

Question: `COc1cc(/C=C/c2nc(-c3ccc(F)cc3)c3n2CCOC3)ccc1-n1cnc(C)c1` [Example 13, 1-(4-fluorophenyl)-3-{(E)-2-[3-methoxy-4-(4-methyl-1H-imidazol-1-yl)phenyl]vinyl}-5,6-dihydro-8H-imidazo[5,1-c][1,4]oxazine] was tested. Which IC50 did it give?
Answer: The IC50 was 170 nM.
